What was measured:
FLT3-ITD = molecular target: T1, FLT3-ITD (Homo sapiens, UniProt P36888); assay: AlphaScreen kinase assay with recombinant enzyme, FLT3-ITD; type: biochemical; conditions: 8pt; read-out: FLT3_ITD 8pt: IC50
T1 sequence (P36888 1-993): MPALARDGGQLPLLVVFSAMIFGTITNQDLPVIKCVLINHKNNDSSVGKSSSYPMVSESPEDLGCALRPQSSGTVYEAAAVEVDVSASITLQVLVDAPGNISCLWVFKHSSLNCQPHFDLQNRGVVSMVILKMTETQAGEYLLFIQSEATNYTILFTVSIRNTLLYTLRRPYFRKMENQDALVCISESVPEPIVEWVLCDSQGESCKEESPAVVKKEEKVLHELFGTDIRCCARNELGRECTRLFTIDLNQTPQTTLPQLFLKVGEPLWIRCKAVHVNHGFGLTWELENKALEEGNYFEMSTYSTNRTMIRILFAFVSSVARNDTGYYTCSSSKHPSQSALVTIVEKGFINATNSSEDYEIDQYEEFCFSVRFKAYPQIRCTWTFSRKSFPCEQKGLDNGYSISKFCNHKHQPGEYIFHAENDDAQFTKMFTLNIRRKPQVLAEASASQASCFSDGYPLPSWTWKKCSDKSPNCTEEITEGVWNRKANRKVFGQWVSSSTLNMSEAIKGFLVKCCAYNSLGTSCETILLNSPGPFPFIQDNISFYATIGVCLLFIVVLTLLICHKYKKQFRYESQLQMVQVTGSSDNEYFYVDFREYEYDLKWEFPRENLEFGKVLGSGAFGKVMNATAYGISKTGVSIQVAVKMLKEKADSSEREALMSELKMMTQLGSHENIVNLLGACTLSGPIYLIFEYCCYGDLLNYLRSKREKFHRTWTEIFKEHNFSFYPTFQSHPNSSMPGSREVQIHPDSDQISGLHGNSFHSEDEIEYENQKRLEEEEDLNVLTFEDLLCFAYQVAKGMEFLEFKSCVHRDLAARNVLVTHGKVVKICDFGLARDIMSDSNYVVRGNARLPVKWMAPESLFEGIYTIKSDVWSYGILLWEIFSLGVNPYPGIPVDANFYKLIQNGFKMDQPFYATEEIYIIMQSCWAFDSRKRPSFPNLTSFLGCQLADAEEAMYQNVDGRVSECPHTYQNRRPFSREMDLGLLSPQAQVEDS
Summary of the method: (§1)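 AlphaScreen, biotinylated poly(Glu4-Tyr) 30 nM final; PY20 anti-pTyr acceptor and streptavidin donor beads 10 μg/mL; IC50 final conc. 10 μM (FLT3-D835Y, FLT3-ITD) / 100 μM (c-KIT); detection incubations 20 + 60 min RT; 580 nm emission.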

FLT3-D835Y = molecular target: T2, FLT3-D835Y (Homo sapiens, UniProt P36888, D835Y); assay: AlphaScreen kinase assay with recombinant enzyme, FLT3-D835Y; type: biochemical; conditions: 8pt, GMean
T2 construct: purchased Invitrogen PV3967
T2 sequence (P36888 27-993 D835Y): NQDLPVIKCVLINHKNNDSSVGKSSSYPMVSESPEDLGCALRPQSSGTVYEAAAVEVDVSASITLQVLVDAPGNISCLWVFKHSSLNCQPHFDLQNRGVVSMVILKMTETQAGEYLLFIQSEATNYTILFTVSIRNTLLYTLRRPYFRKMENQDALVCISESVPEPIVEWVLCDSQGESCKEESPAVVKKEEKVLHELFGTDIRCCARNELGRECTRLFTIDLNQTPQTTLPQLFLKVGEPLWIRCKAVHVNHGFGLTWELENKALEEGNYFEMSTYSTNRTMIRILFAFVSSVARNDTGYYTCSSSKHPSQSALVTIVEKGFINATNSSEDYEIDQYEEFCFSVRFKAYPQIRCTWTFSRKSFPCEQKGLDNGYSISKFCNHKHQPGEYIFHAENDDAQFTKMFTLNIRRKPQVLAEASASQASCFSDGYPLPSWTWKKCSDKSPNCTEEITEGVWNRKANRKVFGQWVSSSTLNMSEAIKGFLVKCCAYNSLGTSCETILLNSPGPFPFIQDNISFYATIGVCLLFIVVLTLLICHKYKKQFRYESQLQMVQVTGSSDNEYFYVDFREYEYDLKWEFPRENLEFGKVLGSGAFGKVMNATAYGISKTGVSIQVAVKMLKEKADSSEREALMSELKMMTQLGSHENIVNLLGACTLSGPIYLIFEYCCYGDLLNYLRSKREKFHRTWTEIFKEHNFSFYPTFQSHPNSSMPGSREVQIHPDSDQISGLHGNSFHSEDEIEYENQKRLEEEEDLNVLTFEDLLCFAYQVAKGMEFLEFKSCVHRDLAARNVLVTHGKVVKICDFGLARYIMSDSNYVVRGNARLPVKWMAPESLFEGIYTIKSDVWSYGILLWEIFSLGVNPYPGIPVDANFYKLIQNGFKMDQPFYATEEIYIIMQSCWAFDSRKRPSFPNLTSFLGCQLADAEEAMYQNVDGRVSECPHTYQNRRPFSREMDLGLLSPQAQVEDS
Summary of the method: as §1

Row | IC50 (FLT3-ITD) | IC50 (FLT3-D835Y) | SMILES
1 | 10 to 50 µM | 10 to 50 µM | CC(=O)NC1CCN(C(=O)c2cccc(-c3cnc4[nH]c(-c5ccc(F)cc5)cc4c3)c2)CC1 [Compound P-0001, N-[1-[3-[2-(4-fluorophenyl)-1H-pyrrolo[2,3-b]pyridin-5-yl]benzoyl]-4-piperidyl]acetamide]
2 | 0.0001 to 10 µM | 0.0001 to 10 µM | CON(C)C(=O)c1cccc(-c2cnc3[nH]c(-c4ccccc4)cc3c2)c1 [Compound P-0002, N-methoxy-N-methyl-3-(2-phenyl-1H-pyrrolo[2,3-b]pyridin-5-yl)benzamide]
3 | 0.0001 to 10 µM | 0.0001 to 10 µM | NC1CN(C(=O)c2n[nH]c3ccc(-c4cnc5[nH]c(-c6ccccc6)cc5c4)cc23)C1 [Compound P-0029, (3-aminoazetidin-1-yl)-[5-(2-phenyl-1H-pyrrolo[2,3-b]pyridin-5-yl)-1H-indazol-3-yl]methanone]
4 | 0.0001 to 10 µM | 0.0001 to 10 µM | CNC(=O)C1CCN(C(=O)c2cccc(-c3cnc4[nH]c(-c5ccccc5)cc4c3)n2)CC1 [Compound P-0030, N-methyl-1-[6-(2-phenyl-1H-pyrrolo[2,3-b]pyridin-5-yl)pyridine-2-carbonyl]piperidine-4-carboxamide]
5 | 0.0001 to 10 µM | 0.0001 to 10 µM | CCNC(=O)NC1CCN(C(=O)c2cccc(-c3cnc4[nH]c(-c5ccccc5)cc4c3)n2)CC1 [Compound P-0031, 1-ethyl-3-[1-[6-(2-phenyl-1H-pyrrolo[2,3-b]pyridin-5-yl)pyridine-2-carbonyl]-4-piperidyl]urea]
6 | 0.0001 to 10 µM | 0.0001 to 10 µM | CS(=O)(=O)NC1CCN(C(=O)c2cccc(-c3cnc4[nH]c(-c5ccccc5)cc4c3)n2)CC1 [Compound P-0032, N-[1-[6-(2-phenyl-1H-pyrrolo[2,3-b]pyridin-5-yl)pyridine-2-carbonyl]-4-piperidyl]methanesulfonamide]
7 | 0.0001 to 10 µM | 0.0001 to 10 µM | Cc1ccc(-c2cnc3[nH]c(-c4ccccc4)cc3c2)nc1C(=O)N1CCC(N)CC1 [Compound P-0033, (4-amino-1-piperidyl)-[3-methyl-6-(2-phenyl-1H-pyrrolo[2,3-b]pyridin-5-yl)-2-pyridyl]methanone]
8 | 0.0001 to 10 µM | 0.0001 to 10 µM | NC1CCN(c2cccc3ccc(-c4cnc5[nH]c(-c6ccccc6)cc5c4)nc23)CC1 [Compound P-0034, 1-[2-(2-phenyl-1H-pyrrolo[2,3-b]pyridin-5-yl)-8-quinolyl]piperidin-4-amine]
9 | 0.0001 to 10 µM | 0.0001 to 10 µM | Cc1ccc(-c2cnc3[nH]c(-c4ccccc4)cc3c2)cc1C(=O)N1CCC(N)CC1 [Compound P-0035, (4-amino-1-piperidyl)-[2-methyl-5-(2-phenyl-1H-pyrrolo[2,3-b]pyridin-5-yl)phenyl]methanone]
10 | 0.0001 to 10 µM | 0.0001 to 10 µM | N[C@H]1CCN(C(=O)c2cccc(-c3cnc4[nH]c(-c5ccccc5)cc4c3)c2)C1 [Compound P-0036, [(3S)-3-aminopyrrolidin-1-yl]-[3-(2-phenyl-1H-pyrrolo[2,3-b]pyridin-5-yl)phenyl]methanone]
11 | 0.0001 to 10 µM | 0.0001 to 10 µM | NC1CCN(C(=O)c2cc(-c3cnc4[nH]c(-c5ccccc5)cc4c3)ccn2)CC1 [Compound P-0038, (4-amino-1-piperidyl)-[4-(2-phenyl-1H-pyrrolo[2,3-b]pyridin-5-yl)-2-pyridyl]methanone]
12 | 0.0001 to 10 µM | 0.0001 to 10 µM | O=C(NC1CCNCC1)c1n[nH]c2ccc(-c3cnc4[nH]c(-c5ccccc5)cc4c3)cc12 [Compound P-0039, 5-(2-phenyl-1H-pyrrolo[2,3-b]pyridin-5-yl)-N-(4-piperidyl)-1H-indazole-3-carboxamide]
13 | 0.0001 to 10 µM | 0.0001 to 10 µM | CNC1CCN(C(=O)c2cccc(-c3cnc4[nH]c(-c5ccccc5)cc4c3)n2)CC1 [Compound P-0041, [4-(methylamino)-1-piperidyl]-[6-(2-phenyl-1H-pyrrolo[2,3-b]pyridin-5-yl)-2-pyridyl]methanone]
